These results are taken from patent US20110166121A1 (LG LIFE SCIENCES LTD., priority 2008, published 2011).

The test system of experiment [1] is Human platelet aggregation caused by ADP. The experiment in a line: Inhibition of ADP-induced platelet aggregation (Mimic-human PRP). As to conditions: 20 μM ADP, human platelet concentrate diluted with PPP, absorption at 595 nm. It counts as cell-based. In short, it runs like this:
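Ki came from non-linear sigmoidal fits of inhibition, measured as the 3-min rise in absorbance at 595 nm after 20 μM ADP, relative to 0/20 μM ADP controls. Platelets (3–4×10^8/mL in PPP-diluted human PRP) were exposed to 0.01–30 μM compound for 20 min at room temperature beforehand.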

The target in another experiment is T1, Human P2Y12 receptor (Homo sapiens, UniProt Q9H244).
T1 construct: expressed in transfected cells; host or cells: HEK cells
T1 sequence (Q9H244 whole entry): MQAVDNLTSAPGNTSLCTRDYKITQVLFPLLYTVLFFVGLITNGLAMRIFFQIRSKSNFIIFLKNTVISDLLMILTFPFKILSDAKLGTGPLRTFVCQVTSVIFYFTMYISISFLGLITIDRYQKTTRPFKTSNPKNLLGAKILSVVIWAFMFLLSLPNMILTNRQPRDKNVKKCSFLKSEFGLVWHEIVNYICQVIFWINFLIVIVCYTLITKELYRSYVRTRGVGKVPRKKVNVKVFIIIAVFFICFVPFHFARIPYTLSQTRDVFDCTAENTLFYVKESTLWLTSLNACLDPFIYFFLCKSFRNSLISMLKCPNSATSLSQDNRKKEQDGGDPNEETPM
The experiment in a line: Human P2Y12 receptor cell membrane binding assay with [3H] 2-Mes-ADP. As to conditions: 1 nM [3H] 2-Mes-ADP, membranes of HEK cells expressing P2Y12 receptor; read-out: Binding activity (IC50). In short, it runs like this: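 Competition binding used 1 nM [3H]2-MeS-ADP on P2Y12-expressing HEK cell membranes for 1 h at room temperature, followed by filtration and scintillation counting.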

Where only a bound is given, the exact number is not on record here.

Take `CCc1cc2c(N3CCn4c(nnc4C(F)(F)F)C3)nc(CO)nc2s1` [Example 4-18, [6-Ethyl-4-(3-trifluoromethyl-5,6-dihydro-8H-[1,2,4]triazolo[4,3-a]pyrazin-7-yl)thieno[2,3-d]pyrimidin-2-yl]methanol]: in experiment [1], the Ki – broadly, the dissociation constant of the complex between target and ligand, obtained from inhibition or displacement – is 1600 nM. Moreover, at Human P2Y12 receptor, the IC50 (as a rule, the concentration that gives 50% inhibition) is 1530 nM.
In experiment [1], `CCCc1cc2c(N3CCn4c(nnc4C(F)(F)F)C3)nc(N3CCc4cc(OC)c(OC)cc4C3CC)nc2s1` (stereo not drawn) [Example 1-67, 1-Ethyl-6,7-dimethoxy-2-[6-propyl-4-(3-trifluoromethyl-5,6-dihydro-8H-[1,2,4]triazolo[4,3-a]pyrazin-7-yl)-thieno[2,3-d]pyrimidin-2-yl]-1,2,3,4-tetrahydro-isoquinoline] came in with a Ki greater than 4000 nM. Further, the IC50 on Human P2Y12 receptor was 643 nM.
The like results for `CCCc1cc2c(N3CCn4c(nnc4C(F)(F)F)C3)nc(N(C)C)nc2s1` [Example 1-64, Dimethyl-[6-propyl-4-(3-trifluoromethyl-5,6-dihydro-8H-[1,2,4]triazolo[4,3-a]pyrazin-7-yl)-thieno[2,3-d]pyrimidin-2-yl]-amine] were, in that order, greater than 4000 nM and 170 nM.
In experiment [1], `CCCc1cc2c(N3CCn4c(nnc4C(F)(F)F)C3)nc(OCCC(=O)O)nc2s1` [Example 3-11, 3-[6-Propyl-4-(3-trifluoromethyl-5,6-dihydro-8H-[1,2,4]triazolo[4,3-a]pyrazin-7-yl)-thieno[2,3-d]pyrimidin-2-yloxy]-propionic acid] registered a Ki of 70 nM. Besides, at Human P2Y12 receptor, the IC50 amounted to 72 nM.
The like results for `CCCc1cc2c(N3CCn4c(nnc4C(F)(F)F)C3)nc(-c3nnc(CC(=O)OCC)o3)nc2s1` [Example 4-40, {5-[6-Propyl-4-(3-trifluoromethyl-5,6-dihydro-8H-[1,2,4]triazolo[4,3-a]pyrazin-7-yl)thieno[2,3-d]pyrimidin-2-yl]-[1,3,4]oxadiazol-2-yl}acetic acid ethyl ester] were, in that order, 270 nM and 230 nM.
The like results for `CCCc1cc2c(N3CCn4c(nnc4C(F)(F)F)C3)nc(NCCC(=O)O)nc2s1` [Example 1-44, 3-[6-Propyl-4-(3-trifluoromethyl-5,6-dihydro-8H-[1,2,4]triazolo[4,3-a]pyrazin-7-yl)-thieno[2,3-d]pyrimidin-2-ylamino]-propionic acid] were, in that order, 260 nM and 59 nM.
The corresponding values for `CCCc1cc2c(N3CCn4c(nnc4C(F)(F)F)C3)nc(NCCN3CSCC3=O)nc2s1` [Example 1-128, 3-{2-[6-Propyl-4-(3-trifluoromethyl-5,6-dihydro-8H-[1,2,4]triazolo[4,3-a]pyrazin-7-yl)-thieno[2,3-d]pyrimidin-2-ylamino]-ethyl}-thiazolidin-4-one] are 61 nM and 100 nM.
Take `CCCc1cc2c(N3CCn4c(nnc4C(F)(F)F)C3)nc(N3CCN(C)C(=O)C3)nc2s1` [Example 1-25, 1-Methyl-4-[6-propyl-4-(3-trifluoromethyl-5,6-dihydro-8H-[1,2,4]triazolo[4,3-a]pyrazin-7-yl)-thieno[2,3-d]pyrimidin-2-yl]-piperazin-2-one]: affinity in experiment [1] was put at a Ki of 100 nM. The 50% inhibitory concentration (IC50) at Human P2Y12 receptor was found to be 32 nM.
The like results for `CCCc1cc2c(N3CCn4c(nnc4C(F)(F)F)C3)nc(N3CCC(C#N)C3)nc2s1` (stereo not drawn) [Example 1-55, 1-[6-Propyl-4-(3-trifluoromethyl-5,6-dihydro-8H-[1,2,4]triazolo[4,3-a]pyrazin-7-yl)-thieno[2,3-d]pyrimidin-2-yl]-pyrrolidine-3-carbonitrile] were, in that order, 27 nM and 60 nM.
The like results for `CCCc1cc2c(N3CCn4c(nnc4C(F)(F)F)C3)nc(COC(=O)c3ccccc3)nc2s1` [Example 4-22, Benzoic Acid 6-propyl-4-(3-trifluoromethyl-5,6-dihydro-8H-[1,2,4]triazolo[4,3-a]pyrazin-7-yl)thieno[2,3-d]pyrimidin-2-ylmethyl ester] were, in that order, 1600 nM and 850 nM.
The corresponding values for `CCCc1cc2c(N3CCn4c(nnc4C(F)(F)F)C3)nc(C(N)=O)nc2s1` [Example 4-3, 6-Propyl-4-(3-trifluoromethyl-5,6-dihydro-8H-[1,2,4]triazolo[4,3-a]pyrazin-7-yl)-thieno[2,3-d]pyrimidine-2-carboxylic acid amide] are 120 nM and 630 nM.
In experiment [1], `CCCc1cc2c(N3CCn4c(nnc4C(F)(F)F)C3)nc(N3CCC[C@@H]3C(=O)O)nc2s1` [Example 1-54, (R)-1-[6-Propyl-4-(3-trifluoromethyl-5,6-dihydro-8H-[1,2,4]triazolo[4,3-a]pyrazin-7-yl)-thieno[2,3-d]pyrimidin-2-yl]-pyrrolidine-2-carboxylic acid] registered a Ki of 130 nM. Moreover, the IC50 on Human P2Y12 receptor is 143 nM.
The like results for `CCCc1cc2c(N3CCn4c(nnc4C(F)(F)F)C3)nc(OC3CCOC3)nc2s1` (stereo not drawn) [Example 3-5, 7-[6-Propyl-2-(tetrahydro-furan-3-yloxy)-thieno[2,3-d]pyrimidin-4-yl]-3-trifluoromethyl-5,6,7,8-tetrahydro-[1,2,4]triazolo[4,3-a]pyrazine] were, in that order, 26 nM and 91 nM.
The molecule `CCCc1cc2c(N3CCn4c(nnc4C(F)(F)F)C3)nc(N3CC(=O)C(N)C3)nc2s1` (stereo not drawn) [Example 1-115, 4-Amino-1-[6-propyl-4-(3-trifluoromethyl-5,6-dihydro-8H-[1,2,4]triazolo[4,3-a]pyrazin-7-yl)-thieno[2,3-d]pyrimidin-2-yl]-pyrrolidin-3-one] gave an inhibition constant Ki in experiment [1] of 16 nM. In addition, on Human P2Y12 receptor, the IC50 was 110 nM.
As for `CCCc1cc2c(N3CCn4c(nnc4C(F)(F)F)C3)nc(NCCC(=O)OCC)nc2s1` [Example 1-43, 3-[6-Propyl-4-(3-trifluoromethyl-5,6-dihydro-8H-[1,2,4]triazolo[4,3-a]pyrazin-7-yl)-thieno[2,3-d]pyrimidin-2-ylamino]-propionic acid ethyl ester], affinity in experiment [1] was put at a Ki of 670 nM. For the same molecule, the half-inhibitory concentration (IC50) at Human P2Y12 receptor was 134 nM.
The corresponding values for `CCCc1cc2c(N3CCn4c(nnc4C(F)(F)F)C3)nc(Oc3cccc(C(=O)OC)c3)nc2s1` [Example 3-30, 3-[6-Propyl-4-(3-trifluoromethyl-5,6-dihydro-8H-[1,2,4]triazolo[4,3-a]pyrazin-7-yl)-thieno[2,3-d]pyrimidin-2-yloxy]-benzoic acid methyl ester] are greater than 4000 nM and 280 nM.
On to `CCCc1cc2c(N3CCn4c(nnc4C(F)(F)F)C3)nc(CC(N)=S)nc2s1` [Example 4-56, 2-[6-Propyl-4-(3-trifluoromethyl-5,6-dihydro-8H-[1,2,4]triazolo[4,3-a]pyrazin-7-yl)-thieno[2,3-d]pyrimidin-2-yl]-thioacetamide], for which the inhibition constant Ki in experiment [1] worked out at 6.4 nM. The IC50 on Human P2Y12 receptor worked out at 170 nM.
The corresponding values for `CCCc1cc2c(N3CCn4c(nnc4C(F)(F)F)C3)nc(-c3nc(CCO)cs3)nc2s1` [Example 4-59, 2-{2-[6-Propyl-4-(3-trifluoromethyl-5,6-dihydro-8H-[1,2,4]triazolo[4,3-a]pyrazin-7-yl)-thieno[2,3-d]pyrimidin-2-yl]-thiazol-4-yl}-ethanol] are 8.4 nM and 40 nM.
The corresponding values for `CCCCc1cc2c(N3CCn4c(nnc4C(F)(F)F)C3)nc(N3CCN(C)CC3)nc2s1` [Example 2-16, 7-[6-Butyl-2-(4-methyl-piperazin-1-yl)-thieno[2,3-d]pyrimidin-4-yl]-3-trifluoromethyl-5,6,7,8-tetrahydro-[1,2,4]triazolo[4,3-a]pyrazine] are 817 nM and 188 nM.
Molecule `CCCc1cc2c(N3CCn4c(nnc4C(F)(F)F)C3)nc(Oc3ccccc3C(=O)OC)nc2s1` [Example 3-32, 2-[6-Propyl-4-(3-trifluoromethyl-5,6-dihydro-8H-[1,2,4]triazolo[4,3-a]pyrazin-7-yl)-thieno[2,3-d]pyrimidin-2-yloxy]-benzoic acid methyl ester] displayed an inhibition constant Ki in experiment [1] greater than 4000 nM. Also, the IC50 on Human P2Y12 receptor was 650 nM.
In the case of `CCCc1cc2c(N3CCn4c(nnc4C(F)(F)F)C3)nc(C(=O)N3CCC(O)C3)nc2s1` (stereo not drawn) [Example 4-12, (3-Hydroxy-pyrrolidin-1-yl)-[6-propyl-4-(3-trifluoromethyl-5,6-dihydro-8H-[1,2,4]triazolo[4,3-a]pyrazin-7-yl)thieno[2,3-d]pyrimidin-2-yl]methanon], the Ki in experiment [1] worked out at 95 nM. In addition, the IC50 on Human P2Y12 receptor was 1100 nM.
The like results for `CCCc1cc2c(N3CCn4c(nnc4C(F)(F)F)C3)nc(N3CCc4ccccc4C3)nc2s1` [Example 1-65, 2-[6-Propyl-4-(3-trifluoromethyl-5,6-dihydro-8H-[1,2,4]triazolo[4,3-a]pyrazin-7-yl)-thieno[2,3-d]pyrimidin-2-yl]-1,2,3,4-tetrahydro-isoquinoline] were, in that order, 260 nM and 257 nM.
The like results for `CCCc1cc2c(N3CCn4c(nnc4C(F)(F)F)C3)nc(Oc3ccc(CO)cc3)nc2s1` [Example 3-48, {4-[6-Propyl-4-(3-trifluoromethyl-5,6-dihydro-8H-[1,2,4]triazolo[4,3-a]pyrazin-7-yl)-thieno[2,3-d]pyrimidin-2-yloxy]-phenyl}-methanol] were, in that order, greater than 4000 nM and 340 nM.
The corresponding values for `CCCc1cc2c(N3CCn4c(nnc4C(F)(F)F)C3)nc(Oc3ccccn3)nc2s1` [Example 3-36, 7-[6-Propyl-2-(pyridin-2-yloxy)-thieno[2,3-d]pyrimidin-4-yl]-3-trifluoromethyl-5,6,7,8-tetrahydro-[1,2,4]triazolo[4,3-a]pyrazine] are 940 nM and 260 nM.
